Laboratory results reported in patent publication US6534524B1, “Indazole compounds and pharmaceutical compositions for inhibiting protein kinases, and methods for their use” (Agouron Pharmaceuticals, Inc., priority 1999, dated 2003).

System: human umbilical vein endothelial cells (HUVEC)
Assay: HUVEC proliferation assay (VEGF-stimulated, MTT);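 on % inhibition of the proliferation of HUVEC: relative to VEGF-stimulated control minus starvation-medium baseline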
Assay type: cell-based
Conditions: crude reaction mixtures; for % inhibition: Library III, HUVEC proliferation, nominal concentration of 0.5 nM
[1] = Library II, Y=S, 0.5 mM (column head; text: nominal 0.5 nM)
[2] = Library II, Y=S, 2 mM (column head; text: nominal 2 nM)
[3] = Library I, Y = CO, nominal concentration of 10 nM
[4] = Library I, Y = NH, nominal concentration of 10 nM
[5] = Library I, Y = O, nominal concentration of 10 nM

Row | Compound | % inhibition [%] | other results
1 | O=C(NCc1ccccc1Cl)c1ccccc1Sc1ccc2c(/C=C/c3ccccn3)n[nH]c2c1 | 7 | –
2 | CCC(C)C(NC(=O)c1ccccc1Sc1ccc2c(C=Cc3ccccn3)n[nH]c2c1)C(=O)NO (centres unmarked) | 9 | –
3 | O=C(Nc1cccc2c(O)cccc12)c1ccccc1Sc1ccc2c(/C=C/c3ccccn3)n[nH]c2c1 | 4 | –
4 | COc1ccc(CNC(=O)c2ccccc2Sc2ccc3c(/C=C/c4ccccn4)n[nH]c3c2)cc1OC | 7 | –
5 | O=C(NCC1CC1)c1ccccc1Sc1ccc2c(/C=C/c3ccccn3)n[nH]c2c1 [drawing 758] | – | % inhibition of the proliferation of HUVEC [1]: 35%; % inhibition of the proliferation of HUVEC [2]: 69%
6 | O=C(NCc1ccc2c(c1)CCO2)c1ccccc1Sc1ccc2c(/C=C/c3ccccn3)n[nH]c2c1 | 14 | –
7 | C[n+]1ccc(NC(=O)c2ccccc2Sc2ccc3c(/C=C/c4ccccn4)n[nH]c3c2)cc1 | 0 | –
8 | CCc1ccc(CCNC(=O)c2ccccc2Sc2ccc3c(/C=C/c4ccccn4)n[nH]c3c2)cc1 | −11 | –
9 | O=C(Nc1nncs1)c1ccccc1Sc1ccc2c(/C=C/c3ccccn3)n[nH]c2c1 | – | % inhibition of the proliferation of HUVEC [1]: 44%; % inhibition of the proliferation of HUVEC [2]: 28%
10 | COc1ccc(OC)c(NC(=O)c2ccccc2Sc2ccc3c(/C=C/c4ccccn4)n[nH]c3c2)c1 | −5 | –
11 | O=C(Nc1cnccn1)c1ccccc1Sc1ccc2c(/C=C/c3ccccn3)n[nH]c2c1 | −1 | –
12 | CSc1ccccc1NC(=O)c1ccccc1Sc1ccc2c(/C=C/c3ccccn3)n[nH]c2c1 | −10 | –
13 | O=C(NC1CC1)c1ccc2c(-c3nc4ccccc4[nH]3)n[nH]c2c1 [drawing 587] | – | % inhibition of the proliferation of HUVEC [3]: 20%; % inhibition of the proliferation of HUVEC [4]: 0%; % inhibition of the proliferation of HUVEC [5]: 43%
14 | O=C(Nc1cc(Cl)cc(Cl)c1)c1ccccc1Sc1ccc2c(/C=C/c3ccccn3)n[nH]c2c1 | −22 | –
15 | Cc1cc(NC(=O)c2ccccc2Sc2ccc3c(/C=C/c4ccccn4)n[nH]c3c2)sn1 | 19 | –
16 | CCCc1cccc(NC(=O)c2ccccc2Sc2ccc3c(/C=C/c4ccccn4)n[nH]c3c2)c1 | −42 | –
17 | CSCCC(CO)NC(=O)c1ccccc1Sc1ccc2c(/C=C/c3ccccn3)n[nH]c2c1 (centres unmarked) | −45 | –
18 | O=C(c1ccc2c(-c3nc4ccccc4[nH]3)n[nH]c2c1)N1CCC(O)C1 (centres unmarked) | – | % inhibition of the proliferation of HUVEC [3]: 10%; % inhibition of the proliferation of HUVEC [4]: −2%; % inhibition of the proliferation of HUVEC [5]: 19%

Row | Compound | % inhibition [%] | other results
19 | CC(C)c1ccc(NC(=O)c2ccccc2Sc2ccc3c(/C=C/c4ccccn4)n[nH]c3c2)cc1 | −12 | –
20 | CC(=O)Nc1ccc(NC(=O)c2ccccc2Sc2ccc3c(/C=C/c4ccccn4)n[nH]c3c2)cc1 | −4 | –
21 | Cc1cccc(CNC(=O)c2ccccc2Sc2ccc3c(/C=C/c4ccccn4)n[nH]c3c2)c1C | 13 | –
22 | O=C(NCc1ccc(F)cc1)c1ccccc1Sc1ccc2c(/C=C/c3ccccn3)n[nH]c2c1 | 57 | –
23 | O=C(NCS(=O)(=O)O)c1ccccc1Sc1ccc2c(/C=C/c3ccccn3)n[nH]c2c1 | – | % inhibition of the proliferation of HUVEC [1]: 2%; % inhibition of the proliferation of HUVEC [2]: −3%
24 | O=C(Nc1ccc2[nH]ncc2c1)c1ccccc1Sc1ccc2c(/C=C/c3ccccn3)n[nH]c2c1 | 22 | –
25 | Cc1ccc(NC(=O)c2ccccc2Sc2ccc3c(/C=C/c4ccccn4)n[nH]c3c2)c(C)c1 | 13 | –
26 | NC(=O)C1CCCN(C(=O)c2ccc3c(-c4nc5ccccc5[nH]4)n[nH]c3c2)C1 (centres unmarked) | – | % inhibition of the proliferation of HUVEC [3]: 3%; % inhibition of the proliferation of HUVEC [4]: 13%; % inhibition of the proliferation of HUVEC [5]: 36%
27 | O=C(NC1CCCCC1O)c1ccccc1Sc1ccc2c(/C=C/c3ccccn3)n[nH]c2c1 (centres unmarked) | −6 | –
28 | Cc1ccc(NC(=O)c2ccccc2Sc2ccc3c(/C=C/c4ccccn4)n[nH]c3c2)nc1 | −20 | –
29 | CC(CO)(CO)NC(=O)c1ccccc1Sc1ccc2c(/C=C/c3ccccn3)n[nH]c2c1 | −18 | –
30 | O=C(NCCCCCCO)c1ccccc1Sc1ccc2c(/C=C/c3ccccn3)n[nH]c2c1 | −20 | –
31 | O=C(Nc1ccccc1)c1ccc2c(-c3nc4ccccc4[nH]3)n[nH]c2c1 | – | % inhibition of the proliferation of HUVEC [3]: 3%; % inhibition of the proliferation of HUVEC [4]: 16%; % inhibition of the proliferation of HUVEC [5]: 24%
32 | O=C(Nc1cccc(C(F)(F)F)c1)c1ccccc1Sc1ccc2c(/C=C/c3ccccn3)n[nH]c2c1 | 4 | –
33 | CCCCC(CC)NC(=O)c1ccccc1Sc1ccc2c(/C=C/c3ccccn3)n[nH]c2c1 (centres unmarked) | – | % inhibition of the proliferation of HUVEC [1]: 31%; % inhibition of the proliferation of HUVEC [2]: 30%
34 | O=C(Nc1cc2ccccc2cc1O)c1ccccc1Sc1ccc2c(/C=C/c3ccccn3)n[nH]c2c1 | 18 | –
35 | O=C(NCc1cccs1)c1ccccc1Sc1ccc2c(/C=C/c3ccccn3)n[nH]c2c1 | 23 | –
